Assay results as given in patent US20170107207A1, “AMINOPYRAZOLONE DERIVATIVE” (DAIICHI SANKYO COMPANY, LIMITED, priority 2014, published 2017).
pIC50: −log10 of the molar value. Structures can show the parent of a compound that is named as a salt.

Columns and labels:
TIP48/TIP49 complex = molecular target: T1, TIP48/TIP49 complex (Homo sapiens, UniProt Q9Y230+Q9Y265); assay: ATPase assay of TIP48/TIP49 complex (ADP-Glo); type: biochemical; conditions: concentration at which the ATPase activity was inhibited by 50%
T1 construct: made in house; host or cells: E. coli
Excerpt: The ATPase activity of the TIP48/TIP49 complex can be measured by use of an ATPase assay described below in Test Examples 1 and 2. The ATPase activity of the TIP48/TIP49 complex can be measured, as described below in the Test Examples, for example, by using recombinant human TIP48 and TIP49 proteins (hereinafter, referred to as rTIP48 and rTIP49) and ATP in the presence or absence of a test compound and measuring the amount of ADP formed through hydrolysis by the ATPase activity of the TIP48/TIP49 complex, using ADP-Glo. Alternatively, the ATPase activity of the TIP48/TIP49 complex can be measured by a method described in, for example, J. Mol. Biol. 366, 172-179 (2007).
An ATPase assay of a TIP48/TIP49 complex was conducted using rTIP48 and rTIP49. Human TIP48 and TIP49 DNAs were purchased from Open Biosystems. Human TIP48 and TIP49 cDNAs cloned by PCR using the purchased DNAs were each integrated into plasmids for expression in E. coli and expressed in E. coli to obtain rTIP48 and rTIP49.
A test compound was dissolved at 10 mM using DMSO. The solution was diluted to 10 concentrations as 4-fold serial dilutions from 10 mM using DMSO.
A 2×assay buffer (100 mM Tris-HCl, pH 7.5, 100 mM NaCl, 40 mM MgCl2, 2 mM DTT, 20 μM ATP, and 0.2 mg/mL BSA) was dispensed at 24.5 μL/well to a 384-well assay plate.
Test compound solutions were dispensed thereto at 1 μL/well. Subsequently, the solution in each well was mixed using a plate mixer.
rTIP48 and rTIP49 were diluted to a concentration of 50 μg/mL using sterilized water. The diluted solution was dispensed at 24.5 μL/well to the 384-well assay plate. Subsequently, the solution in each well was mixed using a plate mixer (final concentration: 24.5 μg/mL) (concentration of each test compound solution: 200 μM, 50 μM, 12.5 μM, 3.12 μM, 0.78 μM, 0.20 μM, 0.049 μM, 0.012 μM, 0.003 μM, and 0.0007 μM; DMSO concentration: 2%).
After the mixing using the plate mixer, the assay plate was left standing at room temperature for 1.5 hours.
5 μL of the solution in each well was transferred to a white assay plate, and ADP-Glo Reagent from ADP-Glo Kinase Assay (Promega Corp., catalog No. V9101) was dispensed thereto at 5 μL/well. After completion of the reaction, the plate was left standing at room temperature for 40 minutes. Kinase Detection Reagent was further dispensed thereto at 5 μL/well, and the plate was left standing at room temperature for 30 minutes. Then, luminescence intensity was measured using a plate reader.
The ATPase inhibitory activity was calculated according to the expression given below.
The luminescence intensity of a well supplemented with the test compound and the TIP48/TIP49 complex was defined as A. The luminescence intensity of a well supplemented with only the TIP48/TIP49 complex was defined as B. The luminescence intensity of a well supplemented with neither the test compound nor the TIP48/TIP49 complex was defined as C. The ratio between the test compound-supplemented group and the test compound-nonsupplemented group (T/C value) was determined according to the following calculation expression:
The dose-response curve was calculated using GraphPad Prism 4 from the concentration of each of the serially diluted test compounds and the ATPase inhibitory activity (%) at this concentration.

[1] = tested on: human lymphoma cell line RAMOS cells; assay: Cell growth inhibition test using RAMOS cell, ATP assay (CellTiter-Glo); type: cell-based; conditions: Homo sapiens, Ramos, 72 h, cultured 3 days, 50% growth inhibition concentration
Protocol: A cell growth inhibition test was carried out by treating human lymphoma cell line RAMOS cells with a test compound for a given period and then counting the number of viable cells by MTT assay or CellTiter-Glo Luminescent Cell Viability Assay (manufactured by Promega Corp.; hereinafter, referred to as ATP assay).
RAMOS cells were inoculated at 4000 cells/40 μL/well to a 384-well plate containing the compound prepared in advance at predetermined concentrations. The cells thus inoculated were cultured at 37° C. for 3 days under 5% CO2. In order to measure a cell survival rate, CellTiter-Glo Reagent was added in an amount corresponding to 1/4 of the amount of the culture solution at the day of cell inoculation and at the final culture date and stirred at room temperature for 2 minutes. Then, luminescence intensity was measured using a plate reader. The cell survival rate was calculated according to the expression given below.
The number of viable cells and luminescence intensity have been confirmed to correlate with each other. Therefore, the rate of cell growth was calculated according to the following expression: Rate of cell growth (T/C %) of a test compound-supplemented well=100×[(B−C)/(A−C)] wherein A represents the luminescence intensity (final culture date) of a test compound-free well; B represents the luminescence intensity (final culture date) of a test compound-containing well; and C represents the luminescence intensity (day of cell inoculation) of a well at the start of contact of the cells with the test compound.
T/C % at each concentration of the test compound was determined. The concentration at which the test compound offered 50% growth rate was calculated as a GI50 value from the growth rates at two points interpolating 50% and the concentrations, and is shown in Table 56.

T1 sequence (Q9Y230 whole entry): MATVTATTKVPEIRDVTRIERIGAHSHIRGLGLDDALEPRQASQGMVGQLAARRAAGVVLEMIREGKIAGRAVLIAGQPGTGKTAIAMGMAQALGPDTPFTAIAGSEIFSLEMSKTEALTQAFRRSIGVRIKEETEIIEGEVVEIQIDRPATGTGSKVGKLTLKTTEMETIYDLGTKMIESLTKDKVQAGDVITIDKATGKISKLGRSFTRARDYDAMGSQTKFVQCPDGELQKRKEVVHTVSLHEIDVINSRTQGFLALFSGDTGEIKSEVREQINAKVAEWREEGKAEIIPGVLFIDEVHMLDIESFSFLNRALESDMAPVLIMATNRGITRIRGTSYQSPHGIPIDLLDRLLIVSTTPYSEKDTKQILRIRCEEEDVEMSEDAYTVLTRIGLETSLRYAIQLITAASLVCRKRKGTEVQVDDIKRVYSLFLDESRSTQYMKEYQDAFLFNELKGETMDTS
T1 sequence (Q9Y265 whole entry): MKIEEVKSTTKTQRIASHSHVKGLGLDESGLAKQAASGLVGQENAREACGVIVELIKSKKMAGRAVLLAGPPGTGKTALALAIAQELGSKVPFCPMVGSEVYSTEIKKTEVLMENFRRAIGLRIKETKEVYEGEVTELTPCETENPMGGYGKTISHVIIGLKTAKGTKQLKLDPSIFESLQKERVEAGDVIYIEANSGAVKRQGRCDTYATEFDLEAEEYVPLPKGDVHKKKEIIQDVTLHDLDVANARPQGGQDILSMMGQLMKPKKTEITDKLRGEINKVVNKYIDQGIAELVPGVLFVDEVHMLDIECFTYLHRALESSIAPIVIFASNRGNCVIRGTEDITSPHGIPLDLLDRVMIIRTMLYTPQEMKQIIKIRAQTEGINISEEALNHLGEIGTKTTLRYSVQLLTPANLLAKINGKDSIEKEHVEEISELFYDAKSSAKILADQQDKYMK

**Q.** CCOc1ccc(Cl)cc1C(=O)NCC(C)(C)CC(=O)Nc1c(CC(=O)OC)n(C)n(-c2ccccc2)c1=O [Example 131, Methyl 2-[4-({4-[(5-chloro-2-ethoxybenzoyl)amino]-3,3-dimethylbutanoyl}amino)-2-methyl-5-oxo-1-phenyl-2,3-dihydro-1H-pyrazol-3-yl]acetate] was tested. Which pIC50 (TIP48/TIP49 complex) did it give?
**A.** 7.21

**Q.** What about the GI50 [1] of the same molecule?
**A.** 130 nM

**Q.** With CCOc1ccc(Cl)cc1C(=O)NCC(C)(C)C(F)C(=O)Nc1c(CCN(C)C)n(C)n(-c2ccccc2)c1=O (stereo not drawn) [Example 91, 5-Chloro-N-[4-({5-[2-(dimethylamino)ethyl]-1-methyl-3-oxo-2-phenyl-2,3-dihydro-1H-pyrazol-4-yl}amino)-3-fluoro-2,2-dimethyl-4-oxobutyl]-2-ethoxybenzamide] as the molecule, how does the pIC50 (TIP48/TIP49 complex) read?
**A.** 6.96

**Q.** What about the GI50 [1] of the same molecule?
**A.** 180 nM

**Q.** Which results are given for CCOc1cc(F)c(Cl)cc1C(=O)NCC(C)(C)CC(=O)Nc1c(CCCN(C)C)n(C)n(-c2ccccc2)c1=O [Example 64, 5-Chloro-N-[4-({5-[3-(dimethylamino)propyl]-1-methyl-3-oxo-2-phenyl-2,3-dihydro-1H-pyrazol-4-yl}amino)-2,2-dimethyl-4-oxobutyl]-2-ethoxy-4-fluorobenzamide monohydrochloride]?
**A.** pIC50 (TIP48/TIP49 complex): 7.00; GI50 [1]: 190 nM

**Q.** What does the source list for CCOc1ncc(Cl)cc1C(=O)NCC(C)(C)CC(=O)Nc1c(C(C)NC)n(C)n(-c2ccccc2)c1=O (single isomer, unassigned) [Example 85, (+)-/(−)-5-Chloro-N-[2,2-dimethyl-4-({1-methyl-5-[1-(methylamino)ethyl]-3-oxo-2-phenyl-2,3-dihydro-1H-pyrazol-4-yl}amino)-4-oxobutyl]-2-ethoxypyridine-3-carboxamide]?
**A.** pIC50 (TIP48/TIP49 complex): 6.96; GI50 [1]: 300 nM

**Q.** What does the source list for CCOc1ncc(Br)cc1C(=O)NCC(C)(C)CC(=O)Nc1c(CCN(C)C)n(C)n(-c2ccccc2)c1=O [Example 30, 5-Bromo-N-[4-({5-[2-(dimethylamino)ethyl]1-methyl-3-oxo-2-phenyl-2,3-dihydro-1H-pyrazol-4-yl}amino)-2,2-dimethyl-4-oxobutyl]-2-ethoxypyridine-3-carboxamide]?
**A.** pIC50 (TIP48/TIP49 complex): 7.03; GI50 [1]: 480 nM

**Q.** Which results are given for [2H]C([2H])([2H])N(CCc1c(NC(=O)CC(C)(C)CNC(=O)c2cc(Cl)ccc2OCC)c(=O)n(-c2ccccc2)n1C)C([2H])([2H])[2H] [Example 31, N-{4-[(5-{2-[bis(trideuteriomethyl)amino]ethyl}-1-methyl-3-oxo-2-phenyl-2,3-dihydro-1H-pyrazol-4-yl)amino]-2,2-dimethyl-4-oxobutyl}-5-chloro-2-ethoxybenzamide]?
**A.** pIC50 (TIP48/TIP49 complex): 7.28; GI50 [1]: 170 nM

**Q.** With CCOc1ccc(Cl)cc1C(=O)NCC(C)(C)CC(=O)Nc1c(C(C)CNC)n(C)n(-c2ccccc2)c1=O (stereo not drawn) [Example 76, 5-Chloro-N-[2,2-dimethyl-4-({1-methyl-5-[1-methyl-2-(methylamino)ethyl]-3-oxo-2-phenyl-2,3-dihydro-1H-pyrazol-4-yl}amino)-4-oxobutyl]-2-ethoxybenzamide] as the molecule, how does the pIC50 (TIP48/TIP49 complex) read?
**A.** 7.17

**Q.** And the GI50 [1]?
**A.** 590 nM

**Q.** What does the source list for CCOc1ccc(Cl)cc1C(=O)NCC(C)(C)CC(=O)Nc1c(CC(C)(C)N)n(C)n(-c2ccccc2)c1=O [Example 55, N-(4-{[5-(2-Amino-2-methylpropyl)-1-methyl-3-oxo-2-phenyl-2,3-dihydro-1H-pyrazol-4-yl]amino}-2,2-dimethyl-4-oxobutyl)-5-chloro-2-ethoxybenzamide]?
**A.** pIC50 (TIP48/TIP49 complex): 7.37; GI50 [1]: 170 nM

**Q.** How did the pIC50 (TIP48/TIP49 complex) turn out when [2H]C([2H])([2H])n1c(CCN(C)C)c(NC(=O)CC(C)(C)CNC(=O)c2cc(Cl)ccc2OCC)c(=O)n1-c1ccccc1 [Example 43, 5-Chloro-N-[4-({3-[2-(dimethylamino)ethyl]-5-oxo-1-phenyl-2-(trideuteriomethyl)pyrazol-4-yl}amino)-2,2-dimethyl-4-oxobutyl]-2-ethoxybenzamide] was run?
**A.** 7.22

**Q.** And the GI50 [1]?
**A.** 190 nM
